In patent publication US20250179584A1, “PRECISION THERAPY FOR THE TREATMENT OF CANCER” (Novartis AG, priority 2022, published 2025):

Tests used:
[1] = test system: advanced melanoma with NRAS mutation; settings: trametinib monotherapy, 7 patients with NRAS mutation; cited from earlier work
[2] = test system: KRAS G12, G13C and G13D mutant NSCLC; settings: single agent, second line; cited from earlier work
[3] = test system: pan-RAS codon Q61/G13R mutant models (NSCLC, melanoma, PDAC, rhabdomyosarcomas); settings: independently of the mutated RAS gene and tissue origin
NRAS mutated melanoma [4] = format: in vivo, human; settings: single agent, 10 patients, doses 400-1200 qd and 200-800 bid, data cut May 31, 2021
From the text: Clinical data further supports the pre-clinical findings.

[5] = test system: solid tumors (salivary gland tumor and NSCLC) harboring pan-RAS codon Q61 or G13R mutations; format: in vivo, human; settings: LXH254 single agent
KRAS-mutant models = settings: several KRAS-mutant models, well-tolerated doses; cited from earlier work
[6] = test system: cell lines that contain a variety of mutations that activate MAPK signaling; settings: cited from earlier work
[7] = test system: unresectable stage III/IV metastatic melanoma resistant to anti-PD (L)-1 therapy; settings: monotherapy, 162 patients, cited from earlier work
NRAS mutated melanoma [8] = settings: cited from earlier work
[9] = test system: BRAF mutant and CRAF kinases; settings: cited from earlier work

For `CC(=O)Nc1cccc(-n2c(=O)n(C3CC3)c(=O)c3c(Nc4ccc(I)cc4F)n(C)c(=O)c(C)c32)c1` [trametinib, N-(3-{3-cyclopropyl-5-[(2-fluoro-4-iodophenyl)amino]-6,8-dimethyl-2,4,7-trioxo-3,4,6,7-tetrahydropyrido[4,3-d]pyrimidin-1 (2H)-yl}phenyl) acetamide], the responses [1] is listed as “no responses” and the “superiority against standard of care docetaxel” value [2] is listed as “failed to demonstrate superiority”.
With `Cc1ccc(NC(=O)c2ccnc(C(F)(F)F)c2)cc1-c1cc(OCCO)nc(N2CCOCC2)c1` [naporafenib, N-(3-(2-(2-hydroxyethoxy)-6-morpholino-pyridin-4-yl)-4-methylphenyl)-2-(trifluoromethyl) isonicotinamide] the “activity in non-clinical models” value [3] was “consistent activity”, the “SDs (stable disease)” value (NRAS mutated melanoma [4]) was 4 and the responses (NRAS mutated melanoma [4]) was “no responses”. The “response to single agent therapy” value [5] was “exceptional responders”, the “tumor response in vivo” value (KRAS-mutant models) was “tumor regression” and the anti-proliferative activity [6] was “demonstrated anti-proliferative activity”.
In the case of Ipilimumab: anti-CTLA-4 therapy, the “objective response rate (ORR)” value ([7]; irrespective of mutation status) is listed as 13%, the “median overall survival (mOS)” value [7] is listed as 8.8 months and the “median progression free survival (PFS)” value [7] is listed as 2.6 months.
For `Cn1cnc2c(F)c(Nc3ccc(Br)cc3F)c(C(=O)NOCCO)cc21` [binimetinib], the ORR (NRAS mutated melanoma [8]; 402 patients, untreated (~79%) and previously treated with immunotherapy (~21%)) is listed as 15%, the mOS (NRAS mutated melanoma [8]; 402 patients) is listed as 11 months and the mPFS (NRAS mutated melanoma [8]; 402 patients) is listed as 2.8 months. For the same compound, the anti-tumor activity (NRAS mutated melanoma [8]; single agent MEK inhibitor, NEMO study) was “limited anti-tumor activity”.
For `Cc1ccc2c(Nc3cccc(Cl)c3F)nccc2c1NC(=O)c1csc2c(N)ncnc12` [Belvarafenib, 4-amino-N-(1-((3-chloro-2-fluorophenyl)amino)-6-methylisoquinolin-5-yl) thieno[3,2-d]pyrimidine-7-carboxamide], the selectivity [9] is given as “high selectivity”.
